Measured values published in ChEMBL document CHEMBL3856265, “Conditional changes enhanced production of bioactive metabolites of marine derived fungus Eurotium rubrum” (Bioorg Med Chem Lett, 2016).

Experiment: Inhibition of melanogenesis in theophylline-stimulated mouse B16-4A5 cells assessed as reduction in melanin level incubated for 72 hrs
Type: functional, cell-based
Conditions: B16-4A5, 72 h

| SMILES | IC50 [µM] |
| --- | --- |
| C=CC(C)(C)c1[nH]c2c(CC=C(C)C)cc(CC=C(C)C)cc2c1C[C@@H]1NC(=O)[C@H](C)NC1=O [ECHINULIN] | 68 |
| OC[C@H]1O[C@H](Oc2ccc(O)cc2)[C@H](O)[C@@H](O)[C@@H]1O | 611 |
